Assay results reported in BindingDB's records for doi:10.1021/bi7019707 (Emory University, 2008).

What was measured:
Experiment in all cases: Inhibition Assay
[1] = target: T1, Amine oxidase [flavin-containing] B (Homo sapiens, UniProt P27338)
T1 sequence (P27338 whole entry): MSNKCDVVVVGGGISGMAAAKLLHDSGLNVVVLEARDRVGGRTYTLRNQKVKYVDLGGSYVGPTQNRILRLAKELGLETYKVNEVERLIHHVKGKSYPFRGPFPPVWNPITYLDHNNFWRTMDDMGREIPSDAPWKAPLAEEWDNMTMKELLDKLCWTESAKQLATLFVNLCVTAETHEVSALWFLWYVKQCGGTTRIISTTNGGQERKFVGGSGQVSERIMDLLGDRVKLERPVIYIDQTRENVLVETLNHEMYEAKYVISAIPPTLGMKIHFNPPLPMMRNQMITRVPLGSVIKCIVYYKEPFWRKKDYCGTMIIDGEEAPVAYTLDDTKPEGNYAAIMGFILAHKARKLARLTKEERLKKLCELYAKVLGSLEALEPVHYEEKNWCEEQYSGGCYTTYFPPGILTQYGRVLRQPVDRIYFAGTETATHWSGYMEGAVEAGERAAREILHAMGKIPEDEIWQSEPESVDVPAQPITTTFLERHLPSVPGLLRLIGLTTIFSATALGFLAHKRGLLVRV
From the text: (§1) Competitive inhibition assay using human and rat MAOs.

[2] = target: T2, Amine oxidase [flavin-containing] B (Rattus norvegicus, UniProt P19643)
T2 sequence (P19643 whole entry): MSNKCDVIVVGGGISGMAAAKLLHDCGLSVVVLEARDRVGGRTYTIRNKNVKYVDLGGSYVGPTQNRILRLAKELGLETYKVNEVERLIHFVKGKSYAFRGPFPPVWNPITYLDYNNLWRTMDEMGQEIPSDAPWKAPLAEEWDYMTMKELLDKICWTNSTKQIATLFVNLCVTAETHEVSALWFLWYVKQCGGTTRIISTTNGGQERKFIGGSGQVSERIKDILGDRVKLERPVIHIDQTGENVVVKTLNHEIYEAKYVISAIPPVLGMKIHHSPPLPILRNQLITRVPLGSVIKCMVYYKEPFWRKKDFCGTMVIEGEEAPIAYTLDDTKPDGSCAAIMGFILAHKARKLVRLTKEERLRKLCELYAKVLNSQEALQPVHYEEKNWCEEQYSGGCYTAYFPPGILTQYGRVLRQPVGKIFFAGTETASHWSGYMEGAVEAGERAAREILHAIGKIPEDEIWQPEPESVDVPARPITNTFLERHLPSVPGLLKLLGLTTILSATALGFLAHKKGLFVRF
From the text: as §1

[3] = target: T3, Amine oxidase [flavin-containing] A (Homo sapiens, UniProt P21397)
T3 sequence (P21397 whole entry): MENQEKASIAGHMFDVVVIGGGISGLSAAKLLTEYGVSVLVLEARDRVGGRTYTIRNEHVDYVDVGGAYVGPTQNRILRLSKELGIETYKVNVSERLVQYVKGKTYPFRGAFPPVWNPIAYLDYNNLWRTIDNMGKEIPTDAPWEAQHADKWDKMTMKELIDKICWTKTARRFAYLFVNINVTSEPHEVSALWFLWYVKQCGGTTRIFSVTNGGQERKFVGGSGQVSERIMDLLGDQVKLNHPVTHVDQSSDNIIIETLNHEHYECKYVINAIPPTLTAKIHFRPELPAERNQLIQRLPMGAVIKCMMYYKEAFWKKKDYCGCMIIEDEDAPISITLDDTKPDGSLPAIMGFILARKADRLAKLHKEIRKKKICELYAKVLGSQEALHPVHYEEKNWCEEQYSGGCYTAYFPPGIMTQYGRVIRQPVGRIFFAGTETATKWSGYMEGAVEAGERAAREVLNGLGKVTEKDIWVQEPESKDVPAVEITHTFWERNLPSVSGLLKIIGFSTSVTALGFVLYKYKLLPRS
From the text: as §1

[4] = target: T4, Amine oxidase [flavin-containing] A (Rattus norvegicus, UniProt P21396)
T4 sequence (P21396 whole entry): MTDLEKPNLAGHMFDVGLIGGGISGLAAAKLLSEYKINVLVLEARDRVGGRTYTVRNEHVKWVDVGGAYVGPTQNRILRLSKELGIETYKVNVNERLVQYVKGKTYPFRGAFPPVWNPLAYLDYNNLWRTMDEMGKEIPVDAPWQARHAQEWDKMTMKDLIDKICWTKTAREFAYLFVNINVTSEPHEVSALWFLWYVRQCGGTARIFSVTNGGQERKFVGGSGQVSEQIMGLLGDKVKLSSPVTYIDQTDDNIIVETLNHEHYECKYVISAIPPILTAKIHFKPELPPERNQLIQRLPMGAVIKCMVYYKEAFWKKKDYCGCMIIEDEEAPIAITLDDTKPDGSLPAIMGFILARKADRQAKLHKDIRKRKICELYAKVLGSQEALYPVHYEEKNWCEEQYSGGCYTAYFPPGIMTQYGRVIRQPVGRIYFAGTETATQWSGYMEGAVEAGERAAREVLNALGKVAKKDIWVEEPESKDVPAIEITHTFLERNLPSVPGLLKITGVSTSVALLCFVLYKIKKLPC
From the text: as §1

Ki [1]: 22 µM
Ki [2]: 107 µM
Ki [3]: 212 µM
Ki [4]: 151 µM
SMILES: C#CCN(C)Cc1ccc(CC(=O)NC2CC(C)(C)N(O)C(C)(C)C2)cc1 [ParSL]
